Measurements from article PMC8205226, “HIV-1 Integrase Inhibitors with Modifications That Affect Their Potencies against Drug Resistant Integrase Mutants” (ACS Infectious Diseases, 2021).
Where two headings read alike, the source gives them in different places.

Legend:
HIV-1 IN mutant Y143R [1] = assay: single-round infectivity assay, Y143R IN mutant; assay type: cell-based; settings: for FC Y143R: fold change in EC50, IN mutant versus WT HIV-1
Experimental: (§1) Figure 2 Antiviral activities of the new compounds against RAL-resistant mutants. The EC50 values were determined using a vector that carries WT HIV-1 IN and the RAL-resistant mutants in a single round infection assay. […] Error bars represent the standard deviations of independent experiments, n = 4, performed in triplicate. The graph has a maximum value of 550 nM.
(§2) WT and mutant HIV-1 viral vectors were used in single-round infectivity assays to determine the antiviral potencies (EC50 values) of the compounds and the effects of the mutants on the EC50 values as previously described.[30],[54] Single round infectivity measurements were determined as done previously.[38]
(§3) The vector pNLNgoMIVR-ΔENV.LUC has been described previously.[26] To produce the new IN mutants used in this study, the IN open reading frame was removed from pNLNgoMIVR-ΔENV.LUC by digestion with KpnI and SalI, and the resulting fragment was inserted between the KpnI and SalI sites of pBluescript KS+. Using that construct as the wild-type template, we prepared the following HIV-1 IN mutants using the QuikChange II XL site directed mutagenesis kit (Agilent Technologies, Santa Clara, CA) protocol: N117A, N117H, P142A, P142H, P142S, Y143C, Y143H, S230R, R231G, and R231K. The following sense oligonucleotides were used with matching cognate antisense oligonucleotides (not shown) (Integrated DNA Technologies, Coralville, IA) in the mutagenesis: N117A, 5′-[…]-3′; N117H, 5′-[…]-3′; P142A, 5′-[…]-3′; P142H, 5′-[…]-3′; P142S, 5′-[…]-3′; Y143C, 5′- […]-3′; Y143H, 5′-[…]-3′; S230R, 5′- […]-3′; R231G, 5′-[…]-3′; R231K, 5′-[…]-3′.

HIV-1 IN mutant N155H [2] = assay: single-round infectivity assay, N155H IN mutant; assay type: cell-based; settings: for FC N155H: fold change in EC50, IN mutant versus WT HIV-1
Experimental: as §1, §2, §3

[3] = system: HIV-1 IN double mutant G140S/Q148H; assay: single-round infectivity assay, G140S/Q148H IN double mutant; assay type: cell-based; settings: for FC G140S/Q148H: fold change in EC50, IN mutant versus WT HIV-1
Experimental: as §1, §2, §3

HIV-1 IN mutant N117A = assay: single-round infectivity assay, N117A IN mutant; assay type: cell-based; settings: for EC50: Human immunodeficiency virus 1, read-out: EC50 values N117A; for FC N117A: fold change in EC50, IN mutant versus WT HIV-1
Experimental: (§4) The EC50 values were determined using a vector that carries the IN mutant in a single round infection assay. […] Error bars represent the standard deviations of independent experiments, n = 4, performed in triplicate.
as §2, §3

HIV-1 IN mutant N117H = assay: single-round infectivity assay, N117H IN mutant; assay type: cell-based; settings: for EC50: Human immunodeficiency virus 1, read-out: EC50 values N117H; for FC N117H: fold change in EC50, IN mutant versus WT HIV-1
Experimental: as §4, §2, §3

HIV-1 IN mutant S119R = assay: single-round infectivity assay, S119R IN mutant; assay type: cell-based; settings: for EC50: Human immunodeficiency virus 1, read-out: EC50 values S119R; for FC S119R: fold change in EC50, IN mutant versus WT HIV-1
Experimental: as §4, §2, §3

HIV-1 IN mutant Y143C = assay: single-round infectivity assay, Y143C IN mutant; assay type: cell-based; settings: for FC Y143C: fold change in EC50, IN mutant versus WT HIV-1
Experimental: as §4, with “Figure 4 Mutations in the β5-α3 loop affect the antiviral potencies of the new compounds. The” for “The”
as §2, §3

HIV-1 IN mutant Y143H = assay: single-round infectivity assay, Y143H IN mutant; assay type: cell-based; settings: for FC Y143H: fold change in EC50, IN mutant versus WT HIV-1
Experimental: as §4, with “Figure 4 Mutations in the β5-α3 loop affect the antiviral potencies of the new compounds. The” for “The”
as §2, §3

HIV-1 IN mutant P142A = assay: single-round infectivity assay, P142A IN mutant; assay type: cell-based; settings: for EC50: Human immunodeficiency virus 1, read-out: EC50 values P142A; for FC P142A: fold change in EC50, IN mutant versus WT HIV-1
Experimental: as §4, with “Figure 4 Mutations in the β5-α3 loop affect the antiviral potencies of the new compounds. The” for “The”
as §2, §3

HIV-1 IN mutant P142H = assay: single-round infectivity assay, P142H IN mutant; assay type: cell-based; settings: for EC50: Human immunodeficiency virus 1, read-out: EC50 values P142H
Experimental: as §4
Single round infectivity measurements were determined as done previously.[38]
as §3

HIV-1 IN mutant P142S = assay: single-round infectivity assay, P142S IN mutant; assay type: cell-based; settings: for EC50: Human immunodeficiency virus 1, read-out: EC50 values P142S; for FC P142S: fold change in EC50, IN mutant versus WT HIV-1
Experimental: as §4, with “Figure 4 Mutations in the β5-α3 loop affect the antiviral potencies of the new compounds. The” for “The”
as §2, §3

HIV-1 IN mutant S230R = assay: single-round infectivity assay, S230R IN mutant; assay type: cell-based; settings: for EC50: Human immunodeficiency virus 1, read-out: EC50 values S230R; for FC S230R: fold change in EC50, IN mutant versus WT HIV-1
Experimental: as §4, with “Figure 5 Antiviral potencies of the new compounds against IN with mutations in the […]. The” for “The”
as §2, §3

HIV-1 IN mutant R231G = assay: single-round infectivity assay, R231G IN mutant; assay type: cell-based; settings: for EC50: Human immunodeficiency virus 1, read-out: EC50 values R231G; for FC R231G: fold change in EC50, IN mutant versus WT HIV-1
Experimental: as §4, with “Figure 5 Antiviral potencies of the new compounds against IN with mutations in the […]. The” for “The”
as §2, §3

HIV-1 IN mutant R231K = assay: single-round infectivity assay, R231K IN mutant; assay type: cell-based
Experimental: as §4, with “Figure 5 Antiviral potencies of the new compounds against IN with mutations in the […]. The” for “The”
as §2, §3

WT HIV-1 = settings: vector carrying WT HIV-1 IN, single round infection; previously reported; cited from earlier work
HIV-1 IN mutant Y143R [4] = settings: single round infection; previously reported; cited from earlier work
HIV-1 IN mutant N155H [5] = settings: single round infection; previously reported; cited from earlier work
[6] = system: HIV-1 IN double mutant G140S/Q148H; settings: single round infection; previously reported; cited from earlier work
HIV-1 IN mutant G118R [7] = settings: single round infection; previously shown; cited from earlier work
HIV-1 IN mutant G118R [8] = assay: single-round infectivity assay, G118R IN mutant; assay type: cell-based
Experimental: as §4, §2, §3

[9] = Human immunodeficiency virus 1, read-out: EC50 values Y143H, single round infection, n = 4
[10] = read-out: EC50 values Y143H, single round infection, n = 4
[11] = fold change in EC50, IN mutant versus WT HIV-1

Compound: C[C@@H]1CCO[C@H]2Cn3cc(C(=O)NCc4ccc(F)cc4F)c(=O)c(O)c3C(=O)N12 [DTG, dolutegravir, reference compound]
- FC Y143R (HIV-1 IN mutant Y143R [1]): 2.7
- FC N155H (HIV-1 IN mutant N155H [2]): 2.3
- FC G140S/Q148H [3]: 3.6
- EC50 (HIV-1 IN mutant N117A): 0.5 nM
- FC N117A (HIV-1 IN mutant N117A): 0.3
- EC50 (HIV-1 IN mutant N117H): 2.4 nM
- FC N117H (HIV-1 IN mutant N117H): 1.5
- EC50 (HIV-1 IN mutant S119R): 2.3 ± 0.6 nM
- FC S119R (HIV-1 IN mutant S119R): 1.4
- FC Y143C (HIV-1 IN mutant Y143C): 0.9
- EC50 (HIV-1 IN mutant Y143H; [9]): 2.2 ± 0.2 nM
- FC Y143H (HIV-1 IN mutant Y143H): 1.4
- EC50 (HIV-1 IN mutant Y143H; [10]): < 3 nM
- EC50 (HIV-1 IN mutant P142A): 2.5 ± 0.5 nM
- FC P142A (HIV-1 IN mutant P142A): 1.6
- EC50 (HIV-1 IN mutant P142H): 2.8 ± 0.7 nM
- EC50 (HIV-1 IN mutant P142S): 2.2 ± 0.1 nM
- FC P142S (HIV-1 IN mutant P142S): 1.4
- EC50 (HIV-1 IN mutant S230R): 4.6 ± 0.7 nM
- FC S230R (HIV-1 IN mutant S230R): 2.9
- EC50 (HIV-1 IN mutant R231G): 1.4 ± 0.2 nM
- FC R231G (HIV-1 IN mutant R231G): 0.9
- EC50 (HIV-1 IN mutant R231K; Human immunodeficiency virus 1, read-out: EC50 values R231K, single round infection, n = 4): 4.2 ± 0.2 nM
- EC50 (HIV-1 IN mutant R231K; read-out: EC50 values R231K, single round infection, n = 4): < 5 nM
- EC50 (WT HIV-1): 1.6 ± 0.9 nM
- EC50 (HIV-1 IN mutant Y143R [4]): 4.3 ± 1.2 nM
- EC50 (HIV-1 IN mutant N155H [5]): 3.6 ± 1.3 nM
- EC50 [6]: 5.8 ± 0.5 nM
- EC50 (HIV-1 IN mutant G118R [7]): 13 ± 5 nM

Compound: Nc1c(C(=O)NCc2ccc(F)cc2F)c(=O)n(O)c2ncc(CCCCCCO)cc12 [4d]
- ratio of the EC50s (our compound relative to DTG) against Y143R (HIV-1 IN mutant Y143R [1]; EC50 compound / EC50 DTG): 0.5
- FC Y143R (HIV-1 IN mutant Y143R [1]): 0.9
- ratio of the EC50s (our compound relative to DTG) against N155H (HIV-1 IN mutant N155H [2]; EC50 compound / EC50 DTG): 0.8
- FC N155H (HIV-1 IN mutant N155H [2]): 1.2
- ratio of the EC50s (our compound relative to DTG) against G140S/Q148H ([3]; EC50 compound / EC50 DTG): 1.6
- FC G140S/Q148H [3]: 4.1
- ratio of the EC50s (our compound relative to DTG) against N117A (HIV-1 IN mutant N117A; EC50 compound / EC50 DTG): 1.2
- EC50 (HIV-1 IN mutant N117A): 0.6 nM
- FC N117A (HIV-1 IN mutant N117A): 0.3
- ratio of the EC50s (our compound relative to DTG) against N117H (HIV-1 IN mutant N117H; EC50 compound / EC50 DTG): 1.3
- EC50 (HIV-1 IN mutant N117H): 3 nM
- FC N117H (HIV-1 IN mutant N117H): 1.3
- ratio of the EC50s (our compound relative to DTG) against G118R (HIV-1 IN mutant G118R [8]; EC50 compound / EC50 DTG): 0.5
- FC G118R (HIV-1 IN mutant G118R [8]; [11]): 2.8
- ratio of the EC50s (our compound relative to DTG) against S119R (HIV-1 IN mutant S119R; EC50 compound / EC50 DTG): 0.9
- EC50 (HIV-1 IN mutant S119R): 2.1 ± 0.1 nM
- FC S119R (HIV-1 IN mutant S119R): 0.9
- ratio of the EC50s (our compound relative to DTG) against Y143C (HIV-1 IN mutant Y143C; EC50 compound / EC50 DTG): 0.9
- FC Y143C (HIV-1 IN mutant Y143C): 0.5
- ratio of the EC50s (our compound relative to DTG) against Y143H (HIV-1 IN mutant Y143H; EC50 compound / EC50 DTG): 0.8
- EC50 (HIV-1 IN mutant Y143H; [9]): 1.5 ± 0.1 nM
- FC Y143H (HIV-1 IN mutant Y143H): 0.7
- EC50 (HIV-1 IN mutant Y143H; [10]): < 3 nM
- ratio of the EC50s (our compound relative to DTG) against P142A (HIV-1 IN mutant P142A; EC50 compound / EC50 DTG): 0.8
- EC50 (HIV-1 IN mutant P142A): 2.1 ± 0.3 nM
- FC P142A (HIV-1 IN mutant P142A): 0.9
- ratio of the EC50s (our compound relative to DTG) against P142H (HIV-1 IN mutant P142H; EC50 compound / EC50 DTG): 0.5
- EC50 (HIV-1 IN mutant P142H): 1.5 ± 0.1 nM
- FC P142H (HIV-1 IN mutant P142H; [11]): 0.7
- ratio of the EC50s (our compound relative to DTG) against P142S (HIV-1 IN mutant P142S; EC50 compound / EC50 DTG): 0.5
- EC50 (HIV-1 IN mutant P142S): 1.2 ± 0.2 nM
- FC P142S (HIV-1 IN mutant P142S): 0.5
- ratio of the EC50s (our compound relative to DTG) against S230R (HIV-1 IN mutant S230R; EC50 compound / EC50 DTG): 0.8
- EC50 (HIV-1 IN mutant S230R): 3.8 ± 0.3 nM
- FC S230R (HIV-1 IN mutant S230R): 1.7
- ratio of the EC50s (our compound relative to DTG) against R231G (HIV-1 IN mutant R231G; EC50 compound / EC50 DTG): 0.9
- EC50 (HIV-1 IN mutant R231G): 1.3 ± 0.2 nM
- FC R231G (HIV-1 IN mutant R231G): 0.6
- ratio of the EC50s (our compound relative to DTG) against R231K (HIV-1 IN mutant R231K; EC50 compound / EC50 DTG): 0.6
- EC50 (WT HIV-1): 2.3 ± 0.6 nM
- EC50 (HIV-1 IN mutant Y143R [4]): 2.1 ± 1.4 nM
- EC50 (HIV-1 IN mutant N155H [5]): 2.7 ± 1 nM
- EC50 [6]: 9.4 ± 3.6 nM
- EC50 (HIV-1 IN mutant G118R [7]): 6.4 ± 2.5 nM
